Source: PMC10451377, “Rationally Designed Pyrimidine Compounds: Promising Novel Antibiotics for the Treatment of Staphylococcus aureus-Associated Bovine Mastitis” (Antibiotics, 2023)
In brackets after ≈: the same amount, converted by molar mass.

How the values were obtained:
[1] = tested on: all tested bacterial strains, including non-staphylococci strains; experiment: Broth microdilution MIC, summary over all strains tested; conditions: read-out: MIC of DTT
[2] = tested on: Escherichia coli ΔlptD4213; experiment: microbe, parasite or virus in culture; format: cell-based; conditions: read-out: Broth Microdilution MIC
Text: Reference strains for this study (S. aureus ATCC 29213, ATCC 29740 [bovine mastitis strain Newbould], S. epidermidis ATCC 12228, E. coli ATCC 35695, E. faecalis ATCC 29212) were obtained from the American Type Culture Collection (ATCC, Rockville, MD). S. aureus strains CMRSA-10 and CMRSA-2 were obtained from the Laboratoire de santé publique du Québec (LSPQ, Sainte-Anne-de-Bellevue, QC, Canada) and are Canadian CA-MRSA USA-300 and HA-MRSA USA-100 clones, respectively. The strain E. coli imp4213 (lptD), used as a control in MIC assays, is a derivative of E. coli ATCC 35695 (E. coli MC4100) with an increased membrane permeability. […] Other MRSA strains used in this study are clinical isolates of human origin obtained from the microbiology laboratory of the Centre Hospitalier Universitaire de Sherbrooke (CHUS, Sherbrooke, QC, Canada). Bovine mastitis strains (S. aureus, S. chromogenes, S. haemolyticus, S. hominis, S. simulans) were obtained from the Canadian Bovine Mastitis and Milk Quality Research Network (CBRQMN, St-Hyacinthe, QC, Canada). Among these strains, S. aureus 2117 is a high producer of biofilm and was used in the biofilm-eradication assay. S. epidermidis isolates were provided by Centre de Recherche en Infectiologie (CRI) de Québec (Québec, QC, Canada).

[3] = tested on: Escherichia coli ATCC 35695; experiment: Broth microdilution MIC; conditions: ATCC35695, read-out: Broth Microdilution MIC
[4] = tested on: S. aureus bovine strain 2117 embedded in preformed biofilm; experiment: Biofilm-eradication test (MBEC assay); format: cell-based, Staphylococcus aureus; conditions: 24 h preformed biofilm
Protocol: The viability of bacteria in preformed biofilms treated with PC206 was evaluated using the MBEC assay™ system (formerly the Calgary Biofilm Device). The device consists of a plastic lid with 96 pegs and a 96-well plate. […] Plates were incubated at 35 °C for 24 h with agitation (120 rpm). […] The pegs were washed three times with PBS and the biofilm was sonicated for 10 min, and then transferred into a new 96-well base plate. The 96-well plate was centrifuged for 5 min at 180 g to recover the detached bacteria.

[5] = tested on: guanine riboswitch-lacZ fusion construct (xpt-lacZ); experiment: Riboswitch regulation assay (lacZ-gene reporter); format: cell-based, B. subtilis; conditions: concentration as low as 1 µg/mL
Text: The novel pyrimidine compounds, especially PC206, display specificity and potency against some staphylococci but not the other bacterial genus (Table 1 and Table 2). Because they are structurally derived from PC1 and PC2, these novel antibiotic candidates are expected to have the same mode of action. […] To verify this hypothesis, a strain of B. subtilis with a guanine riboswitch-lacZ fusion construct (named xpt-lacZ) integrated in its chromosome was exposed to these new antimicrobials. […] Therefore, it is an adequate reporter species. The metabolization of substrate ONPG into colored ONP was normalized by the bacterial suspension absorbance at 600 nm (Miller units) and relativized to the untreated condition.
β-galactosidase gene expression in the presence of the new pyrimidine analogs was studied, using an xpt-lacZ transcriptional fusion construct integrated in the genome of B. subtilis as previously described. Briefly, cultures were grown for 5 h at 35 °C in CAMHB, from an initial optical density of 0.05 at 600 nm (OD600), and then diluted 1:20 and in the presence of different concentrations of the compounds tested. Cultures were centrifuged for 10 min at 13,100 rpm, the supernatant was discarded, and pellets were suspended in a Z-buffer (NaH2PO4 40 mM, Na2HPO4 60 mM, MgSO4 1 mM, KCl 10 mM). Cultures OD600 were measured, and bacteria were then lysed with lysozyme (1 mg/mL) and β-mercaptoethanol 50 mM for 30 min. Lysates were centrifuged for 10 min at 13,100 rpm, and supernatants were incubated for 5 min at 30 °C with the substrate orthonitrophenyl-β-galactoside (ONPG; Sigma Aldrich). Reactions were stopped with Na2CO3 1M, supernatants OD420 were measured, and Miller units were calculated. A decrease in β-galactosidase activity indicated binding of the test compound to the riboswitch. Guanine and oxacillin were used as […] controls, respectively. The formula to measure Miller units is as follows: Millerunits=1000×OD420/t·v·OD600
Here, t represents the time of incubation with ONPG, and v represents the volume of the reaction.

`O[C@@H](CS)[C@@H](O)CS` (racemic) [DTT, dithiothreitol, reference compound] gave an MIC [1] of over 75 mM.

Work on `CC(C)(O/N=C(\C(=O)N[C@@H]1C(=O)N2C(C(=O)[O-])=C(C[n+]3ccccc3)CS[C@H]12)c1csc(N)n1)C(=O)O` [CAZ, ceftazidime, reference compound] yielded an MIC [2] of 0.03 µg/mL (≈ 0.0549 µM) and an MIC [3] of 0.25 µg/mL (≈ 0.457 µM).

With `CNC(C)C1CCC(N)C(OC2C(N)CC(N)C(OC3OCC(C)(O)C(NC)C3O)C2O)O1` (centres unmarked) [Gentamicin, reference compound] the “Lowest concentration that significantly reduced CFU/peg” value [4] was 2 µg/mL.

For `Nc1nc2nc[nH]c2c(=O)[nH]1` [Guanine, reference compound], the “Effect on lacZ expression” value [5] was “strongly inhibited lacZ expression”.
